Measured values as given in US5795887A, “Method of inducing cholecystokinin agonist activity using 1,4- Benzodiazepine compounds” (Glaxo Wellcome Inc., priority 1994, dated 1998).
Ends that are not written are not given here.

Columns and labels:
rat gastric emptying = experiment: Rat gastric emptying assay (methyl cellulose/phenol red test meal); assay type: in vivo; conditions: CCK-8 intraperitoneally at 30 nmoles/kg; vehicle 66
Experimental: 7. RAT GASTRIC EMPTYING PROTOCOL
Methyl Cellulose (MC) Test Meal
1. Disperse MC in water at 80° C. at a final concentration of 1.5% under continuous stirring. Cool to room temperature.
2. Add Phenol Red (50 mg/100) to solution.
3. Keep solution stirring during entire experiment.
1. Food deprive animals for 18 hours.
2. Inject test drug/prop. glycol or prop. glycol alone intraperitoneally.
3. After 5 minutes, gavage 1.5 mL of Pheno Red/MC solution
1. After 20 minutes, decapitate animal
2. Clamp stomach at the pylorus and cardia ends, and rinse in 0.9% NaCl.
3. Place stomach in 100 mL of 0.1N NaOH, cut into small pieces, and homogenize for 30 seconds.
4. Let settle at room temperature for 60 minutes.
5. In centrifuge tube, add 5 mL of supernatant and 0.5 mL of trichloroacetic acid (29% w/v), and centrifuge at 2,800 rpm for 20 minutes.
6. Decant supernatant, and add 4 mL of 0.5N NaOH and read absorbance at a wavelength of 560 nm.
The standard stomach is determined from the phenol red recovered in stomachs of rats decapitated immediately after intragastric infusion of MC/phenol red.

[1] = system: isolated guinea pig gallbladder; experiment: Isolated guinea pig gallbladder assay (contraction, % CCK-induced maximal response); conditions: for % contraction at 1 µM / % contraction at 30 µM: Cavia porcellus; for % contraction at 1 µM: read-out: % Contraction (1 μM), expressed as % CCK-induced maximal response; for % contraction at 30 µM: read-out: % Contraction (30 μM), expressed as % CCK-induced maximal response
Experimental: 3. GUINEA PIG GALL BLADDER ASSAY
Gallbladders are removed from guinea pigs sacrificed by cervical dislocation. The isolated gallbladders are cleaned of adherent connective tissue and cut into two rings from each animal (2-6 mm in length). […] Tissues are connected via gold chains and stainless steel mounting wires to isometric force displacement transducers (Grass, Model FT03 D). Responses are then recorded on a polygraph (Grass, Model 7E).
Rings are gradually stretched (over a 120 min. period) to a basal resting tension of 1 gm which is maintained throughout the experiment. During the basal tension adjustment period, the rings are exposed to acetylcholine (10^-6 M) four times to verify tissue contractility. The tissues are then exposed to a submaximal dose of sulfated CCK-8 (Sigma, 3×10^-9 M). After obtaining a stable response, the tissues are washed out 3 times rapidly and every 5 to 10 minutes for 1 hour to reestablish a stable baseline.
As a final test, ACH (10 μM) is added to induce maximal contraction.

Molecule	% contraction at 1 µM ([1]; Table 1, 1 μM) [%]	% contraction at 30 µM ([1]; Table 1, 30 μM) [%]	other results
CCK-8: CCK8 is the Cterminal octapeptide of CCK (DYMGWMDF; ends and bridges not checked; UniProt P06307 96-103, looked up) [reference compound]	–	–	rat gastric emptying: % emptying (rat gastric emptying): 0%; Isolated guinea pig gallbladder: % contraction ([1]; Table 2, CCK-8 delivered at 1 μM): 100%
COc1ccc(N(C(=O)CN2C(=O)[C@H](Cc3c[nH]c4ccccc34)NC(=O)c3ccccc32)C(C)C)cc1 [Example 21, (S)-2-[3-(1H-Indol-3-ylmethyl)-2,5-dioxo-2,3,4,5-tetrahydro-benzo[e][1,4]diazepin-1-yl]-N-isopropyl-N-(4-methyoxy-phenyl)-acetamide]	54	–	–
COc1ccc(N(C(=O)CN2C(=O)C(CC(=O)Nc3cccc(C(=O)O)c3)N=C(c3ccccc3)c3ccccc32)C(C)C)cc1 (stereo not drawn) [Example 10, 3-(2-{1-[Isopropyl-(4-methoxy-phenyl)-carbamoylmethyl]-2-oxo-5-phenyl-2,3-dihydro-1H-benzo[e][1,4]diazepin-3-yl}-acetyl-amino)-benzoic acid]	54	–	–
CC(C)N(C(=O)CN1C(=O)C(NC(=O)Nc2cccc(-c3nn[nH]n3)c2)N=C(c2ccccc2)c2ccccc21)c1ccccc1 (stereo not drawn) [Example 1, 1N-Isopropyl-2-(2-oxo-5-phenyl-3-{3-[3-(1H-tetrazol-5-yl)-phenyl]-ureido}-2,3-dihydro-benzo[e][1,4]diazepin-1-yl)-N-phenyl-acetamide]	–	63	–
CC1=NC(NC(=O)Nc2cccc3cn[nH]c23)C(=O)N(CC(=O)N(c2ccccc2)C(C)C)c2ccccc21 (stereo not drawn) [Example 4]	23	59	–
CC(C)N(C(=O)CN1C(=O)C(NC(=O)Nc2ccccc2)N=C(c2ccccc2)c2ccccc21)c1ccccc1 (stereo not drawn) [Example 3]	–	38	–
CC(C)N(C(=O)CN1C(=O)[C@@H](NC(=O)Nc2cccc(C(=O)O)c2)N=C(c2ccccc2)c2ccccc21)c1ccccc1 [Example 12, (S)-3-{3-[1-(Isopropyl-phenyl-carbamoylmethyl)-2-oxo-5-phenyl-2,3-dihydro-1H-benzo[e][1,4]diazepin-3-yl]-ureido}-benzoic acid]	–	80	–
CC1=NC(NC(=O)Nc2ccccc2)C(=O)N(CC(=O)N(c2ccccc2)C(C)C)c2ccccc21 (stereo not drawn) [Example 2, N-Isopropyl-2-[5-methyl-2-oxo-3-(3-phenyl-ureido)-2,3-dihydro-benzo[e][1,4]diazepin-1-yl]-N-phenyl-acetamide]	–	88	–
COc1ccc(N(C(=O)CN2C(=O)C(NC(=O)Nc3ccccc3)N=C(c3cccnc3)c3ccccc32)C(C)C)cc1 (stereo not drawn) [Example 18, N-Isopropyl-N-(4-methoxy-phenyl)-2-[2-oxo-3-(3-phenyl-ureido)-5-pyridin-3-yl-2,3-dihydro-benzo[e][1,4]diazepin-1-yl]-acetamide]	75	–	–
COc1ccc(N(C(=O)CN2C(=O)[C@@H](Cc3c[nH]c4ccccc34)NC(=O)c3c(CC(=O)O)cccc32)C(C)C)cc1 [Example 24]	–	–	% Contraction (1 μM), expressed as % CCK-induced maximal response ([1]; Table 1, 1 μM): 93%; % Contraction (30 μM), expressed as % CCK-induced maximal response ([1]; Table 1, 30 μM): 79%
CC(C)N(C(=O)CN1C(=O)C(NC(=O)c2cc3ccccc3[nH]2)N=C(c2ccccc2)c2ccccc21)c1ccccc1 (stereo not drawn) [Example 14, 1H-indolyl-2-carboxylic acid [1-(isopropyl-phenyl-carbamoylmethyl)-2-oxo-5-phenyl-2,3-dihydro-1H-benzo[e][1,4]diazepin-3-yl]-amide]	–	13	–
CC(C)N(C(=O)CN1C(=O)[C@H](NC(=O)Nc2cccc(C(=O)O)c2)N=C(c2ccccc2)c2ccccc21)c1ccccc1 [Example 13, (R)-3-{3-[1-(Isopropyl-phenyl-carbamoylmethyl)-2-oxo-5-phenyl-2,3-dihydro-1H-benzo[e][1,4]diazepin-3-yl]-ureido}-benzoic acid]	–	77	–
CC(C)N(C(=O)CN1C(=O)C(NC(=O)Nc2ccccc2)[N+]([O-])=C(c2ccccc2)c2ccccc21)c1ccccc1 (stereo not drawn) [Example 16, N-Isopropyl-2-[4-N-oxide-2-oxo-5-phenyl-3-(3-phenyl-ureido)-2,3-dihydro-benzo[e][1,4]diazepin-1-yl]-N-phenyl-acetamide]	–	67	–
COc1ccc(N(C(=O)CN2C(=O)[C@H](Cc3c[nH]c4ccccc34)n3cnnc3-c3ccccc32)C(C)C)cc1 [Example 22, S-2-[4-(1H-Indol-3-ylmethyl)-5-oxo-6,5-dihydro-1,2,3a,6-tetraaza-benzo[e]azulene-6-yl}-N-isopyropyl-N-(4-methoxy-phenyl)acetamide]	36	–	–
COc1ccc(N(C(=O)CN2C(=O)C(CC(=O)Nc3ccccc3)N=C(c3ccccc3)c3ccccc32)C(C)C)cc1 (stereo not drawn) [Example 11, 2-{1-[Isopropyl-(4-methoxy-phenyl)-carbamoylmethyl]-2-oxo-5-phenyl-2,3-dihydro-1H-benzo[e][1,4]diazepin-3-yl}N-phenyl-acetamide]	56	43	–
CC(C)N(C(=O)CN1C(=O)C(NC(=O)c2ccc(Cl)cc2N)N=C(c2ccccc2)c2ccccc21)c1ccccc1 (stereo not drawn) [Example 6, 2-Amino-4-chloro-N-[1-(isopropyl-phenyl-carbamoylmethyl)-5-phenyl-2-oxo-5-phenyl-2,3-dihydro-1H-benzo[e][1,4]diazepin-3-yl]-benzamide]	41	–	–
CC(C)N(C(=O)CN1C(=O)C(NC(=O)Nc2cccc(C(=O)O)c2)N=C(c2ccccc2)c2ccccc21)c1ccc(N(C)C)cc1 (stereo not drawn) [Example 9, 3-(3-{1-[(4-Dimethylamino-phenyl)-isopropyl-carbamoylmethyl]-2-oxo-5-phenyl-2,3-dihydro-1H-benzo[e][1,4]diazepin-3-yl}-ureido)-benzoic acid]	73	62	–
CC(C)N(C(=O)CN1C(=O)C(NC(=O)Nc2cccc(C(=O)O)c2)N=C(c2ccccc2)c2ccccc21)c1ccccc1 (stereo not drawn) [Example 5, 3-{3-[1-(Isopropyl-phenyl-carbamoylmethyl)-2-oxo-5-phenyl-2,3-dihydro-1H-benzo[e][1,4]diazepin-3-yl]-ureido}-benzoic acid]	–	82	–
CC1=NC(NC(=O)Nc2cccc(C(=O)O)c2)C(=O)N(CC(=O)N(c2ccccc2)C(C)C)c2ccccc21 (stereo not drawn) [Example 7, 3-{3-[1-(Isopropyl-phenyl-carbamoylmethyl)-5-methyl-2-oxo-2,3-dihydro-1H-benzo[e][1,4]diazepin-3-yl]-ureido}-benzoic acid]	16	61	–
COc1ccc(N(C(=O)CN2C(=O)[C@@H](Cc3c[nH]c4ccccc34)n3cnnc3-c3ccccc32)C(C)C)cc1 [Example 23, (R)-2-[4-(1H-Indol-3-ylmethyl)-5-oxo-6,5-dihydro-1,2,3a,6-tetraaza-benzo[e]azulene6-yl}-N-isopropyl-N-(4-methoxy-phenyl)-acetamide]	36	–	–
CC(C)N(C(=O)CN1C(=O)C(NC(=O)Nc2ccccc2)n2cnnc2-c2ccccc21)c1ccccc1 (stereo not drawn) [Example 19, N-Isopropyl-N-phenyl-2-[5-oxo-4-(3-phenyl-ureido)-4,5-dihydro-1,2,3a,6-tetraaza-benzo[e]azulen-6-yl]-acetamide]	83	58	–
CC(C)N(C(=O)CN1C(=O)C(NC(=O)c2cc3ccccc3n2CC(=O)O)N=C(c2ccccc2)c2ccccc21)c1ccccc1 (stereo not drawn) [Example 15, {2-[1-(Isopropyl-phenyl-carbamoylmethyl)-2-oxo-5-phenyl-2,3-dihydro-1H-benzo[e][1,4]diazepin-3-ylcarbamoyl]-indol-1-yl}-acetic acid]	–	52	–
COc1ccc(N(C(=O)CN2C(=O)[C@@H](Cc3c[nH]c4ccccc34)NC(=O)c3ccccc32)C(C)C)cc1 [Example 20, (R)-2-[3-(1H-Indol-3-ylmethyl)-2,5-dioxo-2,3,4,5-tetrahydro-benzo[e][1,4]diazepin-1-yl]-N-isopropyl-N-(4-methyoxy-phenyl)-acetamide]	31	–	–
COc1ccc(N(C(=O)CN2C(=O)C(NC(=O)Nc3cccc(C(=O)O)c3)N=C(c3ccccc3)c3ccccc32)C(C)C)cc1 (stereo not drawn) [Example 8, 3-(3-{1-[Isopropyl-(4-methoxy-phenyl)-carbamoylmethyl]-2-oxo-5-phenyl-2,3-dihydro-1H-benzo[e][1,4]diazepin-3yl}-ureido)-benzoic acid]	59	86	–
COc1ccc(N(C(=O)CN2C(=O)C(Cc3c[nH]c4ccccc34)N=C(c3ccccc3)c3ccccc32)C(C)C)cc1 (stereo not drawn) [Example 17, 3-{1-[Isopropyl-(4-methoxy-phenyl)-carbamoylmethyl]-2-oxo-5-phenyl-2,3-dihydro-1H-benzo[e][1,4]diazepin-3-ylmethyl}-indolyl]	24	–	–
